The subject of experiment [1] is Xanthomonas campestris pv. campestris strain RC1. Briefly: Growth inhibition assay against Xcc (OD600). Conditions: LB, 27 °C, 72 h, OD 600 nm, three replicates, two independent experiments.
The subject of experiment [2] is Xanthomonas campestris pv. campestris. Kind of experiment: MIC and MBC determinations against Xcc. Conditions: for MIC: lowest concentration that completely inhibited visible growth, 72 h, tested 3, 2, 1 and 0.5 µM; for Bacteriostatic (MIC) / bactericidal (MBC) activity at 0.5 µM: peptide 0.5 µM; for Bacteriostatic (MIC) / bactericidal (MBC) activity at 0.5 µM / Bacteriostatic (MIC) / bactericidal (MBC) activity at 1 µM / Bacteriostatic (MIC) / bactericidal (MBC) activity at 2 µM / Bacteriostatic (MIC) / bactericidal (MBC) activity at 3 µM: 72 h growth inhibition, then plating on LBA 24 h; for Bacteriostatic (MIC) / bactericidal (MBC) activity at 1 µM: peptide 1 µM; for Bacteriostatic (MIC) / bactericidal (MBC) activity at 2 µM: peptide 2 µM; for Bacteriostatic (MIC) / bactericidal (MBC) activity at 3 µM: peptide 3 µM. Set-up: key to Bacteriostatic (MIC) / bactericidal (MBC) activity at 0.5 µM / Bacteriostatic (MIC) / bactericidal (MBC) activity at 1 µM / Bacteriostatic (MIC) / bactericidal (MBC) activity at 3 µM / Bacteriostatic (MIC) / bactericidal (MBC) activity at 2 µM: Dashes (-) indicate the absence of bacteriostatic or bactericidal activity; Minimal Inhibitory Concentration (MIC); Minimal Bactericidal Concentration (MBC); MIC and MBC: Minimal Inhibitory Concentration (MIC) and Minimal Bactericidal Concentration (MBC). The experiment is classed as cell-based. The method, then: Peptaibols were tested at decreasing concentrations (3, 2, 1 and 0.5 µM). Minimal Bactericidal Concentration (MBC) was determined at the end of the incubation period (72 h) by plating, onto LBA plates, 5 µL samples that were collected from each well with no visible growth.

Another experiment deals with P. oryzae. As to conditions: cited from earlier work.

≈ marks a conversion by molar mass, not a printed value. Where a SMILES comes first, the peptide text is derived from it. [ ]: non-standard residue; d: D form. The star is where a group is joined. Azidoacetyl = [N-]=[N+]=NCC(=O)*; Leu(ol) = CC(C)C[C@H](N)CO; Octanoyl = CCCCCCCC(=O)*; Aib = CC(C)(N)C(=O)O

`CCCCCCCC(=O)NC(C)(C)C(=O)N[C@@H](CCCCN)C(=O)N[C@@H](CC(C)C)C(=O)NC(C)(C)C(=O)N[C@@H](CCCCN)C(=O)N[C@@H](CCCCN)C(=O)N[C@@H](CC(C)C)C(=O)NC(C)(C)C(=O)N[C@@H](CCCCN)C(=O)N[C@H](C(=O)N[C@@H](CC(C)C)C(=O)NC(C)(C)C(=O)N[C@@H](CCCCN)C(=O)N[C@@H](CC(C)C)C(=O)NC(C)(C)C(=O)N[C@@H](CCCCN)C(=O)N[C@@H](CCCCN)C(=O)N[C@@H](CC(C)C)C(=O)NC(C)(C)C(=O)N[C@@H](CCCCN)C(=O)N[C@H](C(=O)N[C@H](CO)CC(C)C)[C@@H](C)CC)[C@@H](C)CC` [Peptide 10] (Octanoyl-[Aib]KL[Aib]KKL[Aib]KIL[Aib]KL[Aib]KKL[Aib]KI[Leu(ol)]): the “Inhibition of Xcc growth in vitro” value in experiment [1] (peptide 3 µM) was “complete inhibition”. In addition, in experiment [2], the MIC was found to be 2 µM (≈ 5.14 µg/mL), the “Bacteriostatic (MIC) / bactericidal (MBC) activity at 0.5 µM” value is listed as “-” and the “Bacteriostatic (MIC) / bactericidal (MBC) activity at 1 µM” value is listed as “-”.
Turning to `CCCCCCCC(=O)NC(C)(C)C(=O)N[C@@H](CCCCN)C(=O)N[C@@H](CC(C)C)C(=O)NC(C)(C)C(=O)N[C@@H](CCCCN)C(=O)NCC(=O)N[C@@H](CC(C)C)C(=O)NC(C)(C)C(=O)N[C@@H](CCCCN)C(=O)N[C@H](C(=O)N[C@@H](CC(C)C)C(N)=O)[C@@H](C)CC` [Peptide 5r] (Octanoyl-[Aib]KL[Aib]KGL[Aib]KIL-NH2), the “Inhibition of Xcc growth in vitro” value in experiment [1] (peptide 3 µM) was “confirmed the Xcc growth inhibition detected at 15 µM”. Moreover, the “Inhibition of Xcc growth in vitro” value in experiment [1] (peptide 15 µM) is given as “complete inhibition”. Further, in experiment [2], the MIC is given as 2 µM (≈ 2.59 µg/mL), the “Bacteriostatic (MIC) / bactericidal (MBC) activity at 0.5 µM” value was “-” and the “Bacteriostatic (MIC) / bactericidal (MBC) activity at 1 µM” value is given as “-”.
With `CCCCCCCC(=O)NC(C)(C)C(=O)N[C@@H](CCCCN)C(=O)N[C@@H](CC(C)C)C(=O)NC(C)(C)C(=O)N[C@@H](CCCCN)C(=O)N[C@@H](CCCCN)C(=O)N[C@@H](CC(C)C)C(=O)NC(C)(C)C(=O)N[C@@H](CCCCN)C(=O)N[C@H](C(=O)N[C@H](CO)CC(C)C)[C@@H](C)CC` [Peptide 23] (Octanoyl-[Aib]KL[Aib]KKL[Aib]KI[Leu(ol)]), the “Inhibition of Xcc growth in vitro” value in experiment [1] (peptide 3 µM) is on record as “complete inhibition”. In addition, in experiment [2], the MIC was found to be 1 µM (≈ 1.35 µg/mL) and the “Bacteriostatic (MIC) / bactericidal (MBC) activity at 0.5 µM” value is “-”.
With “nOct-Aib-Gly-Leu-Aib-Lys-Aib-Leu-Aib-Gly-Ile-Lol [Peptide 6, full-length synthetic analog of trichogin GA IV]”, the “Inhibition of Xcc growth in vitro” value is “partial growth inhibition effect” in experiment [1] (peptide 3 µM) and “completely inhibit” in experiment [1] (peptide 15 µM). Further, the “Inhibition of P. oryzae” value in the experiment on P. oryzae was “strain-dependent inhibition”.
Regarding `CCCCCCCC(=O)NC(C)(C)C(=O)N[C@@H](CCCCN)C(=O)N[C@@H](CC(C)C)C(=O)NC(C)(C)C(=O)NCC(=O)NCC(=O)N[C@@H](CC(C)C)C(=O)NC(C)(C)C(=O)NCC(=O)N[C@H](C(=O)N[C@H](CO)CC(C)C)[C@@H](C)CC` [Peptide 2] (Octanoyl-[Aib]KL[Aib]GGL[Aib]GI[Leu(ol)]), in experiment [1] (peptide 3 µM), the “Inhibition of Xcc growth in vitro” value is “complete inhibition”. In addition, the “Inhibition of Xcc growth in vitro” value in experiment [1] (peptide 15 µM) was “completely inhibit”. Also, in experiment [2], the MIC was 3 µM (≈ 3.41 µg/mL), the “Bacteriostatic (MIC) / bactericidal (MBC) activity at 0.5 µM” value is listed as “-”, the “Bacteriostatic (MIC) / bactericidal (MBC) activity at 1 µM” value is reported as “-” and the “Bacteriostatic (MIC) / bactericidal (MBC) activity at 2 µM” value is reported as “-”. Further, the “Bacteriostatic (MIC) / bactericidal (MBC) activity at 3 µM” value in experiment [2] is given as “MIC”.
As for `CCCCCCCC(=O)NC(C)(C)C(=O)N[C@@H](CCCCN)C(=O)N[C@@H](CCCCN)C(=O)N[C@@H](CC(C)C)C(=O)NC(C)(C)C(=O)NCC(=O)N[C@H](C(=O)N[C@H](CO)CC(C)C)[C@@H](C)CC` [Peptide 4c] (Octanoyl-[Aib]KKL[Aib]GI[Leu(ol)]), the “Inhibition of Xcc growth in vitro” value in experiment [1] (peptide 3 µM) is reported as “confirmed the Xcc growth inhibition detected at 15 µM”. For the same compound, the “Inhibition of Xcc growth in vitro” value in experiment [1] (peptide 15 µM) is “completely inhibited”. In experiment [2], the minimum inhibitory concentration (MIC) worked out at 3 µM (≈ 2.86 µg/mL), the “Bacteriostatic (MIC) / bactericidal (MBC) activity at 0.5 µM” value was “-”, the “Bacteriostatic (MIC) / bactericidal (MBC) activity at 1 µM” value is “-” and the “Bacteriostatic (MIC) / bactericidal (MBC) activity at 2 µM” value is recorded as “-”. The “Bacteriostatic (MIC) / bactericidal (MBC) activity at 3 µM” value in experiment [2] was “MIC”.
Take `CCCCCCCC(=O)NC(C)(C)C(=O)N[C@@H](CCCCN)C(=O)N[C@@H](CC(C)C)C(=O)NC(C)(C)C(=O)N[C@@H](CCCCN)C(=O)N[C@@H](CCCCN)C(=O)N[C@@H](CC(C)C)C(=O)NC(C)(C)C(=O)NCC(=O)N[C@H](C(=O)N[C@@H](CC(C)C)C(N)=O)[C@@H](C)CC` [Peptide 24r] (Octanoyl-[Aib]KL[Aib]KKL[Aib]GIL-NH2): in experiment [1] (peptide 3 µM), the “Inhibition of Xcc growth in vitro” value was “confirmed the Xcc growth inhibition detected at 15 µM”. The “Inhibition of Xcc growth in vitro” value in experiment [1] (peptide 15 µM) is “complete inhibition”. Moreover, in experiment [2], the MIC is recorded as 1 µM (≈ 1.29 µg/mL), the “Bacteriostatic (MIC) / bactericidal (MBC) activity at 0.5 µM” value is on record as “-” and the “Bacteriostatic (MIC) / bactericidal (MBC) activity at 1 µM” value is “MIC”.
As to `CC[C@H](C)[C@H](NC(=O)[C@H](CCCCN)NC(=O)C(C)(C)NC(=O)[C@H](CC(C)C)NC(=O)[C@H](CCCCN)NC(=O)[C@H](CCCCN)NC(=O)C(C)(C)NC(=O)[C@H](CC(C)C)NC(=O)[C@H](CCCCN)NC(=O)C(C)(C)NC(=O)CN=[N+]=[N-])C(=O)N[C@H](CO)CC(C)C` [Peptide 9] (Azidoacetyl-[Aib]KL[Aib]KKL[Aib]KI[Leu(ol)]), in experiment [1] (peptide 3 µM), the “Inhibition of Xcc growth in vitro” value is on record as “complete inhibition”. Further, in experiment [2], the MIC is given as 1 µM (≈ 1.31 µg/mL), the “Bacteriostatic (MIC) / bactericidal (MBC) activity at 0.5 µM” value is listed as “-” and the “Bacteriostatic (MIC) / bactericidal (MBC) activity at 1 µM” value is reported as “MIC”.
Regarding `CCCCCCCC(=O)NC(C)(C)C(=O)NCC(=O)N[C@@H](CC(C)C)C(=O)NC(C)(C)C(=O)NCC(=O)N[C@@H](CCCCN)C(=O)N[C@@H](CC(C)C)C(=O)NC(C)(C)C(=O)NCC(=O)N[C@H](C(=O)N[C@H](CO)CC(C)C)[C@@H](C)CC` [Peptide 22], the “Inhibition of Xcc growth in vitro” value in experiment [1] (peptide 3 µM) is given as “complete inhibition”. In addition, in experiment [2], the MIC stood at 2 µM (≈ 2.28 µg/mL), the “Bacteriostatic (MIC) / bactericidal (MBC) activity at 0.5 µM” value is “-”, the “Bacteriostatic (MIC) / bactericidal (MBC) activity at 1 µM” value is listed as “-” and the “Bacteriostatic (MIC) / bactericidal (MBC) activity at 3 µM” value was “-”.

The values are drawn from publication PMC9967956, “Efficacy of Trichoderma longibrachiatum Trichogin GA IV Peptaibol analogs against the Black Rot Pathogen Xanthomonas campestris pv. campestris and other Phytopathogenic Bacteria” (Microorganisms, 2023).
